From patent US20230140290A1, “SALICYLAMIDE DERIVATIVES AND RELATED METHODS OF MAKING” (THE BOARD OF REGENTS OF THE UNIVERSITY OF TEXAS SY, priority 2020, published 2023)
“And” between values parts separate entries of the source, which are not always exact repeats. Identical values can stand only once.

Assays:
HAdV5-GFP [1] = assay: Plaque assay (inhibition of HAdV plaque formation); type: cell-based, HAdV-5; settings: for Selectivity index (SI): ratio of CC50 to IC50 in plaque assay; for IC50: read-out: Plaque Assay IC50 (μM), HAdV5-GFP, low MOI, 293β5 cell line; for inhibition at 10 µM: read-out: Plaque Assay (%) Inhibition (10 μM)
Procedure, shortened: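 Compounds were present in the post-infection mixture at 10 μM, or at 10 to 0.3 μM for dose-response. Infection used low MOI HAdV5-GFP (0.06 vp/cell) on 80-90% confluent cells, 2 h rocking at 37° C, then a PBS wash.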

[2] = Cytotoxicity assay (AlamarBlue); settings: human, A549 cells
Experimental: (§1) Cytotoxicity Assay. The cytotoxicity of the compounds was analyzed by commercial kit AlamarBlue® (Invitrogen, Ref. DAL1025). A549 cells at a density of 5×10^3 cells per well in 96-well plates were seeded. […] Cells were then incubated at 37° C. for 48 h following the kit protocol. The cytotoxic concentration 50 (CC50) value was obtained using the statistical package GraphPad Prism. This assay was performed in duplicate.

wild-type HAdV5 [3] = assay: Nuclear-associated HAdV genomes (real-time PCR); type: cell-based, HAdV-5
Experimental: (§2) Nuclear-Associated HAdV Genomes. The nuclear delivery of HAdV genomes was assessed by real-time PCR following nuclear isolation from infected cells. […] Forty-five minutes after infection, A549 cells were trypsinized and collected and then washed twice with PBS. Then, cytoplasmic and nuclear fractions were separated using a hypotonic buffer solution and NP-40 detergent. The cell pellet was resuspended in 500 μL of 1×hypotonic buffer (20 mM Tris-HCl pH 7.4, 10 mM NaCl, 3 mM MgCl2) and incubated for 15 min at 4° C. Then, 25 μL of NP-40 was added and the samples were vortexed. The homogenates were centrifuged for 10 min at 835 g at 4° C. Following the removal of the cytoplasmic fraction (supernatant), HAdV DNA was isolated from the nuclear fraction (pellet) and from the cytoplasmic fraction using the QIAamp DNA Mini Kit (QIAGEN, Valencia, Calif.).
as §2, with “E.Z.N.A.® Tissue” for “QIAamp”, “DNA” for “DNA Mini”, “(Omega Bio-tek, Norcross, Ga.).” for “(QIAGEN, Valencia, Calif.).”

HAdV5-GFP [4] = assay: Entry assay (HAdV5-mediated GFP expression); type: cell-based, HAdV-5; settings: for inhibition at 50 µM: A549, 48 h, read-out: (%) Inhibition Entry Assay (50 μM)
Experimental: Entry Assay. The anti-HAdV activity was measured in an entry assay using human A549 epithelial cells (3×10^5 cells/well in coming black wall, clear bottom 96-well plates) infected with HAdV5-GFP (2000 vp/cell) in the presence 50 μM of the candidates and in a dose-response assay. A standard infection curve was generated in parallel by infecting cells in the absence of compounds using serial 2-fold dilutions of virus. All reactions were done in triplicate. Cells, virus, and drugs were incubated for 48 h at 37° C. and 5% CO2.

wild-type HAdV5 [5] = assay: HAdV DNA quantification by real-time PCR (DNA replication); type: cell-based, HAdV-5; settings: 24 h
Experimental: DNA Quantification by Real-Time PCR. […] Infected cells were incubated 24 h at 37° C. in 500 μL of complete DMEM containing 25 μM of either compounds or the same volume of DMSO (positive control). All samples were done in duplicate. After 24 h of incubation at 37° C., DNA was purified from the cell lysate with the QIAamp DNA Mini Kit (QIAGEN, Valencia, Calif.) following the manufacturer's instructions. TaqMan primers and probes for a common region of the HAdV5 were designed with the GenScript Real-Time PCR (TaqMan) Primer Design software (GenScript). […] Real-time PCR mixtures consisted of 9.5 μL of the purified DNA, AQ1 and AQ2 at a concentration of 200 nM each and Probe at a concentration of 50 nM in a total volume of 25 μL. The PCR cycling protocol was 95° C. for 3 min followed by 40 cycles of 95° C. for 10 s and 60° C. for 30 s. Human glyceraldehyde-3-phosphate dehydrogenase (GAPDH) gene was used as internal control. Oligonucleotides sequences for GAPDH and conditions were those previously reported by Henke-Gendo et al. (2012).
For quantification, gene fragments from hexon, and GAPDH were cloned into the pGEM-T Easy vector (Promega) and known concentrations of template were used to generate a standard curve in parallel for each experiment. All assays were performed in thermal cycler LightCycler® 96 System (Roche).
(§3) HAdV DNA Quantification by Real-Time PCR. […] All samples were done in duplicate. After 24 h of incubation at 37° C., DNA was purified from the cell lysate with the E.Z.N.A.® Tissue DNA Kit (Omega Bio-tek, Norcross, Ga.) following the manufacturer's instructions. TaqMan primers and probes for a common region of the HAdV5 were designed with the GenScript Real-Time PCR (TaqMan) Primer Design software (GenScript). […] Real-time PCR mixtures consisted of 9.5 μL of the purified DNA, AQ1 and AQ2 at a concentration of 200 nM each and Probe at a concentration of 50 nM in a total volume of 25 μL. The PCR cycling protocol was 95° C. for 3 min followed by 40 cycles of 95° C. for 10 s and 60° C. for 30 s. Human glyceraldehyde-3-phosphate dehydrogenase (GAPDH) gene was used as internal control. Oligonucleotides sequences for GAPDH and conditions were those previously reported by Henke-Gendo et al. (2012).
as §3, with “DNA” for “HAdV DNA”

A549 cells = assay: Cytotoxicity assay (AlamarBlue); settings: read-out: CC50 (μM), cytotoxic concentration 50%; A549 cell line, 48 h
Experimental: as §1

[6] = FIG. 5A, 45 min post-infection, 10-fold plaque IC50
[7] = A549, read-out: IC50 Entry Assay (μM), HAdV5-GFP, high MOI, A549 cell line
[8] = FIG. 3, 45 min post infection, concentrations by CC50 (2-50 μM)

| SMILES | Selectivity index (SI) (HAdV5-GFP [1]) | IC50 (HAdV5-GFP [1]) [µM] | CC50 at 48 h [2] [µM] | inhibition at 10 µM (HAdV5-GFP [1]) [%] | amount of nuclear-associated HAdV genomes versus DMSO (wild-type HAdV5 [3]; [6]) | inhibition at 50 µM (HAdV5-GFP [4]) [%] | IC50 (HAdV5-GFP [4]; [7]) [µM] | inhibition of HAdV-5 DNA replication (qPCR) (wild-type HAdV5 [5]; FIG. 6A, 10-fold plaque IC50) | CC50 (A549 cells) [µM] | IC50 (HAdV5-GFP [4]; {}) [µM] | amount of nuclear-associated HAdV genomes versus DMSO (wild-type HAdV5 [3]; [8]) | inhibition of HAdV-5 DNA replication (qPCR) (wild-type HAdV5 [5]; FIG. 4, concentrations by CC50 (2-50 μM)) |
| --- | --- | --- | --- | --- | --- | --- | --- | --- | --- | --- | --- | --- |
| Nc1ccn(C[C@@H](CO)OCP(=O)(O)O)c(=O)n1 [cidofovir, reference compound] | 7.5 | 24.1 ± 5.9 | 50.1 ± 9.8 |  |  |  |  |  |  |  |  |  |
| CC(C)(NC(=O)c1cc(Cl)ccc1O)c1ccc(F)cc1 [Compound 51, 5-Chloro-N-(2-(4-fluorophenyl)propan-2-yl)-2-hydroxybenzamide] | 39.1 and 57.8 | 3.46 | > 200 | 100 |  |  |  |  |  |  |  |  |
| O=C(Nc1ccc(NCc2ccc(O)nc2)cc1Cl)c1cc(Cl)ccc1O [Compound 112, 5-Chloro-N-(2-chloro-4-(((6-hydroxypyridin-3-yl)methyl)amino)phenyl)-2-hydroxybenzamide] | 126.3 | 0.78 |  | 100 | significant reductions | 51.7 ± 9.8 | > 50 | low inhibition | 98.5 |  |  |  |
| CC(C)(Cc1ccccc1)ON(c1ccc(NC(=O)c2cc(Cl)ccc2O)c(Cl)c1)C(C)(C)Cc1ccccc1 [Compound 115, 5-Chloro-N-(2-chloro-4-((2-methyl-1-phenylpropan-2-yl)((2-methyl-1-phenylpropan-2-yl)oxy)amino)phenyl)-2-hydroxybenzamide] | 129.7 | 1.27 |  | 100 | no significant differences | 59.1 | 34.1 |  | 165 |  |  |  |
| O=C(Nc1ccc(NCc2ccc(O)cc2)cc1Cl)c1cc(Cl)ccc1O [Compound 101, 5-Chloro-N-(2-chloro-4-((4-hydroxybenzyl)amino)phenyl)-2-hydroxybenzamide] | 104.1 | 1.11 |  | 80.7 ± 9.1 | significant reductions | 83.3 | 15.2 to 30.8 | low inhibition | 116 | 25 ± 6.9 |  |  |
| CC(C)[C@H](NC(=O)c1cc(Cl)ccc1NS(C)(=O)=O)C(=O)Nc1ccc([N+](=O)[O-])cc1Cl [Compound 70, (S)-5-Chloro-N-(1-((2-chloro-4-nitrophenyl)amino)-3-methyl-1-oxobutan-2-yl)-2-(methylsulfonamido)benzamide] | 256.0 | 0.68 |  | 99.1 ± 1.2 |  | 99.1 ± 1.2 | 1.38 ± 0.1 |  | 174 |  | significant (p≤0.0001) reductions |  |
| CC(CCO)Nc1ccc(NC(=O)c2cc(Cl)ccc2O)c(Cl)c1 (stereo not drawn) [Compound 119, 5-Chloro-N-(2-chloro-4-((4-hydroxybutan-2-yl)amino)phenyl)-2-hydroxybenzamide] | 166.7 | 1.2 |  | 96.9 ± 2.4 | no significant differences | 88.6 |  | low inhibition | 200 |  |  |  |
| CC(C)(CCO)Nc1ccc(NC(=O)c2cc(Cl)ccc2O)c(Cl)c1 [Compound 118, 5-Chloro-N-(2-chloro-4-((4-hydroxy-2-methylbutan-2-yl)amino)phenyl)-2-hydroxybenzamide] | 188.3 | 0.9 |  | 92.3 | no significant differences | 42.1 ± 3 | > 50 | low inhibition | 170 ± 4.2 |  |  |  |
| C[C@@H](NC(=O)c1cc(Cl)ccc1O)c1ccc(F)cc1 [Compound 49, (R)-5-Chloro-N-(1-(4-fluorophenyl)ethyl)-2-hydroxybenzamide] | 57.8 and 66.2 | 3.02 | > 200 | 100 |  |  |  |  |  |  |  |  |
| CC[C@@H](C)[C@H](NC(=O)c1cc(Cl)ccc1O)C(=O)Nc1ccc([N+](=O)[O-])cc1Cl [Compound 62, 5-Chloro-N-((2S,3R)-1-((2-chloro-4-nitrophenyl)amino)-3-methyl-1-oxopentan-2-yl)-2-hydroxybenzamide] | 127.6 | 0.16 |  | 99 ± 0.3 |  | 98.2 ± 0.5 | 2.5 ± 0.22 |  | 20.2 |  | significant (p≤0.0001) reductions |  |
| O=C(Nc1cc(F)cc(C(F)(F)F)c1)c1ccc(Cl)cc1O [Compound 20, 4-Chloro-N-(3-fluoro-5-(trifluoromethyl)phenyl)-2-hydroxybenzamide] | 186.8 | 0.11 |  | 96.8 ± 1.9 |  | 100 | 0.26 ± 0.09 |  | 20.6 |  | partially inhibited | low inhibition |
